Assay [1] deals with T1, IlvE (Salmonella enterica, UniProt P0A1A5).
T1 construct: pET28b plasmid, purified on HisTrap (His-tagged); expressed in S. enterica DM13509 (wild type) and DM17050 (ridA)
T1 sequence (P0A1A5 2-309): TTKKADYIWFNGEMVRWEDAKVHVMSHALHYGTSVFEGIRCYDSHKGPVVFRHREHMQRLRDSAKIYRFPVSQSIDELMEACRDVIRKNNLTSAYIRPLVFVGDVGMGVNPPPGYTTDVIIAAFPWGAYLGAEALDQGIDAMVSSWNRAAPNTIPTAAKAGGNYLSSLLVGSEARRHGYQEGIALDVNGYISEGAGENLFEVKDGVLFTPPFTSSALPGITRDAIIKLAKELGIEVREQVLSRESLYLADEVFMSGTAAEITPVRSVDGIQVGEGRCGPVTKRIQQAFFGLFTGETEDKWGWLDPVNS
The assay is described as follows: pyruvate-PLP adduct released by base from the purified protein, HPLC. Format: cell-based. The conditions noted are these: covalent; 2AA formed in vivo, ridA host, 5 mM L-serine; attacks active-site PLP.

The target in assay [2] is T2, Alr (Salmonella enterica, UniProt P0A1A3).
T2 construct: pET20b derivative pDM1602, N-terminal His6 tag; expressed in and purified from S. enterica DM13509 (wild type) and DM17050 (ridA)
The assay is described as above. Format: cell-based. The conditions noted are these: covalent; 2AA formed in vivo, ridA host, 5 mM L-serine; attacks active-site PLP.
From the text: pyruvate-PLP adduct released by base from the purified protein, HPLC on Alr

The target of assay [3] is T3, IlvA (Salmonella enterica, UniProt P20506).
T3 construct: pET20b derivative pDM1578, N-terminal His6 tag; expressed in S. enterica DM13509 (wild type) and DM17050 (ridA)
T3 sequence (P20506 1-514): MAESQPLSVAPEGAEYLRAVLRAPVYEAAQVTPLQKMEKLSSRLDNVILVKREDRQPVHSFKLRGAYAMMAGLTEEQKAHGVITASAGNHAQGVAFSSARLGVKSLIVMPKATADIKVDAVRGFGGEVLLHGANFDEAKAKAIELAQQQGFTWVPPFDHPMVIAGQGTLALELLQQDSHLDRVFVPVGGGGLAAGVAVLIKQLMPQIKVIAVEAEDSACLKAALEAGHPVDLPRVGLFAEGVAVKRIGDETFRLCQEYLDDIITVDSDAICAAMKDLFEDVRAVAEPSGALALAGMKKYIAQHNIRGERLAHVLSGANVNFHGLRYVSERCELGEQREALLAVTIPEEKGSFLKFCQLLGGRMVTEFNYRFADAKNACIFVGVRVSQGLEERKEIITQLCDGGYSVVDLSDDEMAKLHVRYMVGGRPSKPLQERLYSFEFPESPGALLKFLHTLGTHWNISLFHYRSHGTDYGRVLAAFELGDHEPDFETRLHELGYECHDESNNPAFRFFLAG
The assay is described as above. The assay is classed as cell-based. The conditions noted are these: covalent; 2AA formed in vivo, ridA host, 5 mM L-serine; attacks active-site PLP.
From the text: pyruvate-PLP adduct released by base from the purified protein, HPLC on IlvA

In assay [4] the target is T3, IlvA. The assay is described as follows: base release of bound cofactor, HPLC at […] nm. Format: binding. The conditions noted are these: protein from wild-type (ridA+) host; 30 mM KOH release; storage buffer with 10 μM PLP.
The target in assay [5] is T1, IlvE. Nature of the assay: base release of bound cofactor, HPLC at […] nm. The conditions noted are these: protein from wild-type (ridA+) host; 30 mM KOH release; storage buffer with 10 μM PLP. The assay is classed as binding.
The target in assay [6] is T2, Alr. The assay is described as follows: base release of bound cofactor, HPLC at […] nm. Format: binding. The conditions noted are these: protein from wild-type (ridA+) host; 30 mM KOH release; storage buffer with 10 μM PLP.
The target in assay [7] is T2, Alr. Nature of the assay: incubation with purified protein, base release of cofactors, HPLC. Format: binding. The conditions noted are these: covalent; suicide inhibitor, forms pyruvate-PLP in the active site; protein from ridA+ host.
Assay [8] addresses T1, IlvE. The assay is described as follows: base release of bound cofactor, HPLC at […] nm. Format: binding. The conditions noted are these: protein from wild-type (ridA+) host; 30 mM KOH release; storage buffer with 10 μM PLP. The source holds these as a separate data set.

Each structure is given as a SMILES string.

T2 sequence (P0A1A3 whole entry): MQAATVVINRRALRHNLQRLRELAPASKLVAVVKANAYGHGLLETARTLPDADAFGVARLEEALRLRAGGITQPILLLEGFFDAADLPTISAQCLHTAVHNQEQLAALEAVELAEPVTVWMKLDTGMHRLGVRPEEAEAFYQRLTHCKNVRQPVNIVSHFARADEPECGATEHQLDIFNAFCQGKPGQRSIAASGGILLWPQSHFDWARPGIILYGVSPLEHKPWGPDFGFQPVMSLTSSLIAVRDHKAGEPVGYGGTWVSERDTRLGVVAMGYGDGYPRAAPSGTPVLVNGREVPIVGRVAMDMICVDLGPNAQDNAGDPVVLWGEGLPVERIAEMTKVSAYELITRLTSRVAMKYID

As to `C=C(N)C(=O)O` [2AA], the Pyruvate-PLP at IlvE [1] was 0.72 ± <0.01; on Alr [2] it was 0.11 ± <0.01; at IlvA [3] it was 0.03 ± <0.01.

On to `Cc1ncc(COP(=O)(O)O)c(C=O)c1O` [PLP], for which the values for the PLP at IlvA [4], on IlvE [5] and at Alr [6] were 1.25 ± 0.04 nmol/nmol protein, 0.30 ± <0.01 and 0.87 ± <0.01, respectively.

`NC(CCl)C(=O)O` (centres unmarked) [3CA]: the “incubation with purified protein, base release of cofactors, HPLC” value on Alr [7] is listed as “Alr but not IlvA is sensitive to 3-chloroalanine (3CA)”.

With `Cc1ncc(COP(=O)(O)O)c(CN)c1O` [PMP], the PMP on IlvE [8] is 0.33 ± <0.01.

(Values after paper PMC9127364, “2-Aminoacrylate stress damages diverse PLP-dependent enzymes in vivo” (The Journal of Biological Chemistry, 2022).)
